Converted amounts (≈) assume the structure as drawn.
Each compound was assayed on Aspergillus fumigatus (assay: Antimicrobial activity against Aspergillus fumigatus by standard microdilution broth method).
Format: functional

Structure (SMILES) | IC90
CC/C=C/C(CC)C/C=C/[C@@]1(CC)C[C@H](CC)[C@@H](CC(=O)O)OO1 (stereo partly specified) | 5.6 µg/mL (≈ 16.5 µM)
C[C@@H]1[C@H](O)[C@@H](C)/C=C/C=C/C=C/C=C/C=C/C=C/C=C/[C@H](O[C@@H]2O[C@H](C)[C@@H](O)[C@H](N)[C@@H]2O)C[C@@H]2O[C@](O)(C[C@@H](O)C[C@@H](O)[C@H](O)CC[C@@H](O)C[C@@H](O)CC(=O)O[C@H]1C)C[C@H](O)[C@H]2C(=O)O [AMPHOTERICIN B] | 1 µg/mL (≈ 1.08 µM)

What follows are compounds tested on Candida albicans (assay: Antimicrobial activity against Candida albicans by standard microdilution broth method).
Format: functional

Structure (SMILES) | MIC
CC/C=C/C(CC)C/C=C/[C@@]1(CC)C[C@H](CC)[C@@H](CC(=O)O)OO1 (stereo partly specified) | 5 µg/mL (≈ 14.8 µM)
Nc1nc(=O)[nH]cc1F [FLUCYTOSINE] | 1.62 µg/mL (≈ 12.5 µM)
CC(CCCCCCC/C=C/C=C/c1ccccc1)C[C@]1(C)C[C@@](C)(CC(=O)O)OO1 (relative stereo) | 1.6 µg/mL (≈ 3.73 µM)
CC(CCCCCCC/C=C/C=C/c1ccccc1)C[C@]1(C)C[C@](C)(CC(=O)O)OO1 (relative stereo) | 1.6 µg/mL (≈ 3.73 µM)

From ChEMBL document CHEMBL1150664, “New bioactive peroxides from marine sponges of the family plakiniidae” (2002)
